The target in this test is T1, USP25 (USP25-His6, Boston Biochem E-546) (Homo sapiens, UniProt Q9UHP3).
T1 construct: His6; purchased Boston Biochem E-546
T1 sequence (Q9UHP3 1-1055): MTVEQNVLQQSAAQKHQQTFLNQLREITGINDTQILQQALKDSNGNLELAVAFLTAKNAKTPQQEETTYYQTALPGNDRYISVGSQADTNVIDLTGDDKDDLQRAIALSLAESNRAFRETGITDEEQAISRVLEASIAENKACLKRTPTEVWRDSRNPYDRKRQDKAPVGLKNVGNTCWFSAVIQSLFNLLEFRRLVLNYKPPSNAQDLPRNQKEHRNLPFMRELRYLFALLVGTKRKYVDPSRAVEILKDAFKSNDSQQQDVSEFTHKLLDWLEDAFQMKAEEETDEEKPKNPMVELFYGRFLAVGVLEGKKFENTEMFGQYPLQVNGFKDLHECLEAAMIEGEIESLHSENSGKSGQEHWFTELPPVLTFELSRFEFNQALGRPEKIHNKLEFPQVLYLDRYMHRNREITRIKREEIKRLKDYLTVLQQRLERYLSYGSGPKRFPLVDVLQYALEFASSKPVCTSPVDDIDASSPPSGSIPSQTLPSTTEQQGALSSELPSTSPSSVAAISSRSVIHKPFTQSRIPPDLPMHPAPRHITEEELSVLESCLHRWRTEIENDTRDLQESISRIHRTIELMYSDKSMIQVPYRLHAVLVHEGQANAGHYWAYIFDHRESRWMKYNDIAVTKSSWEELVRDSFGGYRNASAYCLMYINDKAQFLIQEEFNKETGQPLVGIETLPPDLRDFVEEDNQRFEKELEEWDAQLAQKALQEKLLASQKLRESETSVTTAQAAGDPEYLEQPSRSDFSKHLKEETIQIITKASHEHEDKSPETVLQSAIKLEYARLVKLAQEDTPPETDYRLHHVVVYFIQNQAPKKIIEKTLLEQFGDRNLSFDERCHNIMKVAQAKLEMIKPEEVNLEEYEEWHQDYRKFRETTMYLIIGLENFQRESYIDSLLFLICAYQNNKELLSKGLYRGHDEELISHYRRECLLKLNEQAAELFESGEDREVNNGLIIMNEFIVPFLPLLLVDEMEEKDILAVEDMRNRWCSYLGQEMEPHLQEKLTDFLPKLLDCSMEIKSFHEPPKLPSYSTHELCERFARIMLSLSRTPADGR
The test is described as follows: Ubiquitin-Rhodamine 110 Assay for USP25 Activity, Example A-2. The test is classed as biochemical. The conditions noted are these: Ubiquitin-Rhodamine 110 assay, Example A-2; read-out: USP25 A-2 IC50 range. An outline of the steps:
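Steps: compound dilutions (top 25 μM, 3-fold, 10 points) were preincubated 30 min with 75 pM USP25-His6; 25 nM Ub-Rh110 substrate was added under initial-velocity conditions; after 45 min at room temperature, 10 mM citric acid stopped the reaction before fluorescence reading.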
With `Cc1ccc2c(N)c(C(=O)N[C@H]3COc4c(ccc(N5CC6CCC(C5)N6)c4F)C3)sc2n1` [Example 103, 3-amino-N-[(3R)-7-{3,8-diazabicyclo[3.2.1]octan-3-yl}-8-fluoro-3,4-dihydro-2H-1-benzopyran-3-yl]-6-methylthieno[2,3-b]pyridine-2-carboxamide], the IC50 fell in the range of 50 to 200 nM. With `CO[C@H]1CN(c2cc3c(cc2F)C[C@@H](NC(=O)c2sc4nc(C)ccc4c2N)CO3)C[C@@H]1N` [Example 94, 3-amino-N-[(3R)-7-[(3S,4S)-3-amino-4-methoxypyrrolidin-1-yl]-6-fluoro-3,4-dihydro-2H-1-benzopyran-3-yl]-6-methylthieno[2,3-b]pyridine-2-carboxamide] the figure was 200 to 2000 nM; with `Cc1ccc2c(N)c(C(=O)N[C@H]3CCc4c(ccc(N5CC6CNCC(C5)O6)c4F)C3)sc2n1` [Example 99, 3-amino-N-[(2S)-5-fluoro-6-{9-oxa-3,7-diazabicyclo[3.3.1]nonan-3-yl}-1,2,3,4-tetrahydronaphthalen-2-yl]-6-methylthieno[2,3-b]pyridine-2-carboxamide], 1 to 50 nM. Regarding `COc1ccc2c(N)c(C(=O)N[C@H]3CCc4cc(N5C[C@H](OC)[C@@H](N)C5)ccc4C3)sc2n1` [Example 134, 3-amino-N-[(2S)-6-[(3S,4S)-3-amino-4-methoxypyrrolidin-1-yl]-1,2,3,4-tetrahydronaphthalen-2-yl]-6-methoxythieno[2,3-b]pyridine-2-carboxamide], the IC50 was over 2000 nM. Consider `Cc1ccc2c(N)c(C(=O)N[C@H]3COc4cc(N5C[C@H](N)[C@H](C(F)F)C5)ccc4C3)sc2n1` [Example 167, 3-amino-N-[(3R)-7-[(3R,4R)-3-amino-4-(difluoromethyl)pyrrolidin-1-yl]-3,4-dihydro-2H-1-benzopyran-3-yl]-6-methylthieno[2,3-b]pyridine-2-carboxamide], for which the IC50 is 200 to 2000 nM. Then `Cc1ccc2c(N)c(C(=O)N[C@H]3COc4cc(N5C[C@@H]6NCCO[C@@H]6C5)ccc4C3)sc2n1` [Example 153, N-[(3R)-7-[(4aS,7aR)-octahydropyrrolo[3,4-b]morpholin-6-yl]-3,4-dihydro-2H-1-benzopyran-3-yl]-3-amino-6-methylthieno[2,3-b]pyridine-2-carboxamide], with 200 to 2000 nM.

For the compound `Cc1cnc2c(N)c(C(=O)N[C@H]3COc4c(F)c(N5CC6CCC(C5)N6)cc(F)c4C3)sc2n1` [Example 107, 7-amino-N-[(3R)-7-{3,8-diazabicyclo[3.2.1]octan-3-yl}-5,8-difluoro-3,4-dihydro-2H-1-benzopyran-3-yl]-3-methylthieno[2,3-b]pyrazine-6-carboxamide], the half-maximal inhibitory concentration (IC50) was 1 to 50 nM. Regarding `Cc1ccc2c(N)c(C(=O)N[C@H]3COc4nc(N5CC6CCC(C5)N6)ccc4C3)sc2n1` [Example 173, 3-amino-N-[(3R)-7-{3,8-diazabicyclo[3.2.1]octan-3-yl]-2H,3H,4H-pyrano[2,3-b]pyridin-3-yl]-6-methylthieno[2,3-b]pyridine-2-carboxamide], the IC50 was 200 to 2000 nM.

As to `COC[C@H]1CN(c2ccc3c(c2)OC[C@H](NC(=O)c2sc4nc(C)ccc4c2N)C3)C[C@@H]1N` [Example 164, 3-amino-N-[(3R)-7-[(3R,4S)-3-amino-4-(methoxymethyl)pyrrolidin-1-yl]-3,4-dihydro-2H-1-benzopyran-3-yl]-6-methylthieno[2,3-b]pyridine-2-carboxamide], the IC50 was in the range of 200 to 2000 nM. With `Cc1nc2sc(C(=O)N[C@H]3COc4cc(N5CC6CCC(C5)N6)c(F)c(F)c4C3)c(N)c2s1` [Example 108, 6-amino-N-[(3R)-7-{3,8-diazabicyclo[3.2.1]octan-3-yl}-5,6-difluoro-3,4-dihydro-2H-1-benzopyran-3-yl]-2-methylthieno[2,3-d][1,3]thiazole-5-carboxamide] the figure was 50 to 200 nM; with `Cc1ccc2c(N)c(C(=O)N[C@H]3COc4cc(N5CC6CCC(C5)N6)cc(F)c4C3)oc2n1` [Example 170, 3-amino-N-[(3R)-7-{3,8-diazabicyclo[3.2.1]octan-3-yl}-5-fluoro-3,4-dihydro-2H-1-benzopyran-3-yl]-6-methylfuro[2,3-b]pyridine-2-carboxamide], over 2000 nM.

Regarding `COC[C@@H]1CNCCN1c1ccc2c(c1)OC[C@H](NC(=O)c1sc3nc(C)ccc3c1N)C2` [Example 155, 3-amino-N-[(3R)-7-[(2S)-2-(methoxymethyl)piperazin-1-yl]-3,4-dihydro-2H-1-benzopyran-3-yl]-6-methylthieno[2,3-b]pyridine-2-carboxamide], the IC50 lay within 50 to 200 nM. With `CO[C@H]1CN(c2ccc3c(c2)CC[C@H](NC(=O)c2sc4nc(C)ccc4c2N)C3)C[C@@H]1N` [Example 116, 3-amino-N-[(2S)-6-[(3S,4S)-3-amino-4-methoxypyrrolidin-1-yl}-1,2,3,4-tetrahydronaphthalen-2-yl]-6-methylthieno[2,3-b]pyridine-2-carboxamide] the figure was 200 to 2000 nM; with `Cc1nc2sc(C(=O)N[C@H]3COc4c(F)c(N5CC6CCC(C5)N6)cc(F)c4C3)c(N)c2s1` [Example 98, 6-amino-N-[(3R)-7-{3,8-diazabicyclo[3.2.1]octan-3-yl}-5,8-difluoro-3,4-dihydro-2H-1-benzopyran-3-yl]-2-methylthieno[2,3-d][1, 3]thiazole-5-carboxamide], 50 to 200 nM; with `CCn1ccc2cc(C(=O)N[C@@H]3CCc4cc(N5C[C@H](OC)[C@@H](N)C5)cc(F)c4C3)nnc21` [Example 139, N-[(2R)-6-[(3S,4S)-3-amino-4-methoxypyrrolidin-1-yl]-8-fluoro-1,2,3,4-tetrahydronaphthalen-2-yl]-7-ethyl-7H-pyrrolo[2,3-c]pyridazine-3-carboxamide], over 2000 nM.

With `COC[C@@H]1CN(c2ccc3c(c2)OC[C@H](NC(=O)c2sc4nc(C)ccc4c2N)C3)CCN1` [Example 158, 3-amino-N-[(3R)-7-[(3S)-3-(methoxymethyl)piperazin-1-yl]-3,4-dihydro-2H-1-benzopyran-3-yl]-6-methylthieno[2,3-b]pyridine-2-carboxamide], the IC50 lay within 200 to 2000 nM.

For `COC[C@@H]1CN(c2ccc3c(c2)OC[C@H](NC(=O)c2sc4nc(C)ccc4c2N)C3)C[C@H]1N` [Example 163, 3-amino-N-[(3R)-7-[(3S,4R)-3-amino-4-(methoxymethyl)pyrrolidin-1-yl]-3,4-dihydro-2H-1-benzopyran-3-yl]-6-methylthieno[2,3-b]pyridine-2-carboxamide], the IC50 was in the range of 200 to 2000 nM. As to `CO[C@H]1CN(c2cc(F)c3c(c2C#N)OC[C@H](NC(=O)c2sc4nc(C)cnc4c2N)C3)C[C@@H]1N` [Example 174, 7-amino-N-[(3R)-7-[(3S,4S)-3-amino-4-methoxypyrrolidin-1-yl]-8-cyano-5-fluoro-3,4-dihydro-2H-1-benzopyran-3-yl]-3-methylthieno[2,3-b]pyrazine-6-carboxamide], the IC50 was over 2000 nM. On to `CO[C@H]1CN(c2ccc3c(c2)OC[C@H](NC(=O)c2sc4nc(C)cnc4c2N)C3)C[C@@H]1N` [Example 117, 7-amino-N-[(3R)-7-[(3S,4S)-3-amino-4-methoxypyrrolidin-1-yl]-3,4-dihydro-2H-1-benzopyran-3-yl]-3-methylthieno[2,3-b]pyrazine-6-carboxamide], for which the 50% inhibitory concentration (IC50) was 200 to 2000 nM. Regarding `CO[C@H]1CN(c2ccc3c(c2)OC[C@H](NC(=O)c2sc4nc(C)sc4c2N)C3)C[C@@H]1N` [Example 118, 6-amino-N-[(3R)-7-[(3S,4S)-3-amino-4-methoxypyrrolidin-1-yl]-3,4-dihydro-2H-1-benzopyran-3-yl]-2-methylthieno[2,3-d][1,3]thiazole-5-carboxamide], the half-maximal inhibitory concentration (IC50) lay in the range of 200 to 2000 nM.

With `CO[C@@H]1CN(c2ccc3c(c2)OC[C@H](NC(=O)c2sc4nc(C)sc4c2N)C3)C[C@@H]1N` [Example 149, 6-amino-N-[(3R)-7-[(3S,4R)-3-amino-4-methoxypyrrolidin-1-yl]-3,4-dihydro-2H-1-benzopyran-3-yl]-2-methylthieno[2,3-d][1,3]thiazole-5-carboxamide], the IC50 was 200 to 2000 nM. For the compound `CO[C@H]1CN(c2ccc3c(c2)OC[C@H](NC(=O)c2sc4nc(C)cnc4c2N)C3)C[C@H]1N` [Example 148, 7-amino-N-[(3R)-7-[(3R,4S)-3-amino-4-methoxypyrrolidin-1-yl]-3,4-dihydro-2H-1-benzopyran-3-yl]-3-methylthieno[2,3-b]pyrazine-6-carboxamide], the concentration for half-maximal inhibition (IC50) was 200 to 2000 nM.

The IC50 is the concentration that inhibits the measured activity by half.

The record behind these values is patent US11524966B1 (Valo Early Discovery, Inc., priority 2017, dated 2022).
